Laboratory results: US20240309018A1, “THIAZOLE-LACTAM-SPIROHETEROCYCLIC COMPOUNDS AND APPLICATIONS THEREOF” (D3 BIO (WUXI) CO., LTD, priority 2021, published 2024)

Tests used:
ERK1 kinase = ERK1 kinase (Homo sapiens (Human), UniProt P27361); test: ERK1 in vitro kinase activity assay (33P-ATP, MBP substrate, filter-binding); type: biochemical
Method: (§1) The ability of the compound to inhibit ERK1 and ERK2 kinase activity was measured.
(§2) 20 mM Hepes (pH 7.5), 10 mM MgCl2, 1 mM ethylenebis(oxyethylenenitrilo)tetraacetic acid (EGTA), 0.02% Brij35, 0.02 mg/mL bovine serum albumin (BSA), 0.1 mM Na3VO4, 2 mM dithiothreitol (DTT), 1% DMSO.
(§3) The assay compound was dissolved in 100% DMSO to prepare a stock solution of specific concentration. The compound was serially diluted in DMSO solution using Integra Viaflo Assist smart pipette.
(§4) • 1) The substrate MBP was prepared in freshly prepared reaction buffer; • 2) ERK1 (or ERK2) kinase was added to the above-mentioned MBP solution and mixed gently; • 3) The compound dissolved in 100% DMSO was added to the kinase reaction system using ultrasound technology (Echo550; nanoliter range), and the mixture was incubated at room temperature for 20 minutes; • 4) 33P-ATP (specific concentration of […]) was added to the reaction system, and the reaction was started at this time; • 5) The mixture was incubated at room temperature for 2 hours; • 6) The amount of radioactivity was detected by filter-binding method; • 7) ERK1 (or ERK2) kinase activity was calculated as the ratio of the remaining kinase activity in the assay sample to the kinase activity of the control group (treated by DMSO). Curve was fitted using Prism (GraphPad software) and IC50 values were calculated. • 5.

ERK2 kinase = ERK2 kinase (Homo sapiens (Human), UniProt P28482); test: ERK2 in vitro kinase activity assay (33P-ATP, MBP substrate, filter-binding); type: biochemical
Sequence of ERK2 kinase (P28482 whole entry): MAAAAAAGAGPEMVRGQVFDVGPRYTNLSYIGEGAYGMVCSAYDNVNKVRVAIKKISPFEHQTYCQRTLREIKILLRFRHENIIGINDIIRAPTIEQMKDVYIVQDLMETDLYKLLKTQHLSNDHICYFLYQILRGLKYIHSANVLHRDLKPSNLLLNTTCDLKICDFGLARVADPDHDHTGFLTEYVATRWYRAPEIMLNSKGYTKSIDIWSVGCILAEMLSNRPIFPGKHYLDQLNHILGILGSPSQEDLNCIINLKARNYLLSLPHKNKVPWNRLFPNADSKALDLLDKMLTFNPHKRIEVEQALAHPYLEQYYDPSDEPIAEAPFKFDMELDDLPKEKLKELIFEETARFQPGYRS
Method: as §1, §2, §3, §4

[1] = tested on: human melanoma A375 cells; test: In vivo efficacy in subcutaneous xenograft tumor model of human melanoma A375; conditions: PO, BID, day 21, BALB/c nude mouse A375 xenograft
Method: The anti-tumor effect of WX001 was evaluated using a subcutaneous xenograft tumor model of human melanoma A375 cells in nude mouse.
• Species: mouse • Strain: BALB/c nude mouse • Age: 6-8 weeks old • Gender: female • Body weight: 18-22 grams • Supplier: Vital River Laboratory Animal Technology Co., Ltd.
• 1) Assay cells and culture: Human melanoma A375 cells were cultured in monolayer in vitro. The culture conditions were DMEM medium plus 10% fetal bovine serum, and a 37° C. 5% CO2 incubator. Routine digestion with trypsin-EDTA was performed twice a week for passage. When the cell saturation was 80%-90% and the amount reached the requirement, the cells were harvested, counted, and inoculated: • 2) Tumor tissue inoculation and grouping: 0.1 mL (5×10^5) of A375 cells were subcutaneously inoculated into the right armpit of each mouse. When the average tumor volume reached 170 mm^3, the animals were randomly divided into 4 groups and the administration was started.
• 3) Daily observation of assay animals: The development of this assay protocol and any modifications were evaluated and approved by the Institutional Animal Care and Use Committee (IACUC). […] Animals were monitored daily for health and death. […] Animal deaths and side effects in each group were recorded based on the number of animals in each group. • 4) Formulation of assay compound • a) Vehicle group: 5% DMSO+95% (20% HP-β-CD). • b) Assay compound group: A quantitative amount of the assay compound was weighed in a formulation bottle. […] A corresponding volume of 20% HP-β-CD was added and then the mixture was vortexed to obtain a homogeneous suspension. • 5) Tumor measurement and assay indicator: • a) Tumor diameter was measured twice a week with a vernier caliper. The calculation formula of tumor volume was: TV=1/2×a×b^2, wherein a and b represent the long and short diameters of tumor, respectively: • b) The tumor-inhibitory efficacy of the compound was evaluated by TGI (%). […]

mouse plasma albumin = test: Plasma protein binding (ultracentrifugation), mouse; type: in vitro ADME; further: tested at 0.2 µM
Method: (§5) The binding degree of the assay compound to human/mouse/rat/canine/monkey plasma albumin was studied.
(§6) • 1) Matrix preparation: on the day of the assay, plasma was thawed in cold water and centrifuged at 3220 rpm for 5 min to remove all clots. The pH of the resulting plasma was measured and adjusted to 7.4±0.1 using 1% phosphoric acid or IN sodium hydroxide as needed. • 2) Dilution procedure for the assay compound: the assay compound was dissolved in dimethyl sulfoxide (DMSO) to prepare stock solutions with concentrations of 10 mM and 2 mM, respectively. A 40 μM working solution was prepared by diluting 2 μL of stock solution (2 mM) with 98 μL of DMSO. A 400 μM working solution of the control compound was prepared by diluting 10 μL of stock solution with 240 μL of DMSO. The working solution of the compound (5 μL) was mixed well with a blank matrix (995 μL) at a ratio of 1:200 to prepare a loading matrix.
(§7) • a) An equal volume of 30 μL of loading matrix (n=2) was transferred to a sample collection plate to prepare a time 0 (TO) sample for residue determination. The sample was immediately matched with the corresponding blank buffer to a final volume of 60 μL, and the volume ratio of plasma to buffer in each well was 1:1. […] The mixture was centrifuged at 4000 rpm for 20 min and 100 μL of supernatant from each sample was analyzed by LC-MS/MS.

rat plasma albumin = test: Plasma protein binding (ultracentrifugation), rat; type: in vitro ADME; further: tested at 0.2 µM
Method: as §5, §6, §7

Sequence of ERK1 kinase (P27361 whole entry): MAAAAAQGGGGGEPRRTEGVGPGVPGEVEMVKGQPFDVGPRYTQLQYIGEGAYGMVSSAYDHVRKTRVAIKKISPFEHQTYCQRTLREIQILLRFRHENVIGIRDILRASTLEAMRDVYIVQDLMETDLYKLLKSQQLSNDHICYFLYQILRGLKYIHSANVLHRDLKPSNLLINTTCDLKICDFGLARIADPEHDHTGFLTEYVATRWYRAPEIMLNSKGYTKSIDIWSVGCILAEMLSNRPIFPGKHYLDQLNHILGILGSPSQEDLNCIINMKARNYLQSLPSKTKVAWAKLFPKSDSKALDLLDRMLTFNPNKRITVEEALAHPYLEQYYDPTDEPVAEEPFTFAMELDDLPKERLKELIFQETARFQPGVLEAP

Structure (SMILES): Cc1cccc(CN2C(=O)c3nc(-c4nc(Nc5ccnn5C)ncc4C)sc3C23COC3)n1 [WX001]
- IC50 (ERK1 kinase): 1400 pM
- IC50 (ERK2 kinase): 540 pM
- TGI ([1]; 12.5 mg/kg): 45%
- TGI ([1]; 25 mg/kg): 58%
- TGI ([1]; 50 mg/kg): 102%
- Plasma protein binding rate (unbound %) (mouse plasma albumin): 11.7%
- Plasma protein binding rate (unbound %) (rat plasma albumin): 8.4%
